Data as given in patent US9844556B2, “Preventive/therapeutic method and preventive/therapeutic agent for complications after cataract surgery” (KOWA COMPANY, LTD., priority 2015, dated 2017).

How the values were obtained:
[1] = system: Human lens epithelial cells (HLEpiC); test: Inhibitory action on actin stress fiber formation (phalloidin staining, confocal microscopy); type: cell-based; settings: treated about an hour
Experimental: Human lens epithelial cells (HLEpiC (ScienCell Research Laboratories)) were diluted with a medium (Epithelial Cell Medium (ScienCell Research Laboratories)), dispensed to each well of Poly-L-lysine (ScienCell Research Laboratories) coated Imaging Chamber CG at 100 μL/well (about 5000 cells/cm^2), and cultured in a carbon dioxide incubator (37° C., 5% CO2) until about 50% confluent. The medium was removed with vacuum suction and a test substance, a positive control, a comparative control, or the medium (control) at each concentration given below was added to each well at 300 μL/well:
Test substance: Ripasudil with a concentration of 10 μM, 100 μM or 1 mM,
Positive control: Cytochalasin D with a concentration of 2 μM,
These were treated in a carbon dioxide incubator (37° C., 5% CO2) for about an hour, and then washed once with the medium. 4% Paraformaldehyde Phosphate Buffer Solution (Wako Pure Chemical Industries, Ltd.) (hereinafter, referred to as a fixative solution) was added at 300 μL/well, and fixation was carried out at room temperature for 2 minutes. After washing with the medium, 0.5% Triton X-100 (Roche Diagnostics K.K.) was added at 300 μL/well, and penetrated at room temperature for 2 minutes. After washing with the medium, the fixative solution was added at 300 μL/well, and fixation was carried out at room temperature for 20 minutes.
Separately, 25 μL of 14 μM Actin-Stain™ 555 phalloidin (Cytoskeleton, Inc.) (hereinafter, referred to as Phalloidin) was added to 3475 μL of 10 mM phosphate buffered saline (Wako Pure Chemical Industries, Ltd.) to produce 100 nM Phalloidin.
This 100 nM Phalloidin was added to each well washed with the medium at 200 μL/well, and staining was carried out at room temperature in a dark place for about 60 minutes.
After washing with the medium, the chamber was removed, and […] Mounting Medium with DAPI (Vector Laboratories, Inc.) was dropped onto a cover glass with a few drops. A slide glass was placed thereon and this was left to stand at room temperature in a dark place for 30 minutes or more, and adhesion and nuclear staining were carried out and then observed by a confocal laser scanning microscope.

Normal human fibroblasts = test: Cytostatic action, BrdU uptake (Cell Proliferation ELISA); type: cell-based; settings: dermal fibroblast proliferation, 2 days
Experimental: Normal human fibroblasts (Sanko Junyaku Co., Ltd.) were seeded at 2000 cells/well and cultured overnight. Next day, the medium (FGM-2 (Sanko Junyaku Co., Ltd.)) was exchanged (150 μL), and 10 μL of Ripasudil was then added so that the final concentration was 0.1 μM, 1 μM and 10 μM. After culturing for 2 days, 10 μL of BrdU (58.8-fold diluted solution: an undiluted solution is a 1000-fold solution) was added, and the cells were cultured for 2 hours. OD540-620 was measured using a plate reader after fixation and antibody addition, washing and coloring, and reaction termination in accordance with the protocol of Cell Proliferation ELISA BrdU kit (Roche), and an action on proliferation was evaluated. A value in a sample in which Ripasudil is not added is considered as 100%, and the uptake rate of BrdU under each condition is shown in Table 2.

HLEpiC = test: Reversibility of inhibition of cell migration after removal; type: cell-based, human; settings: for time after removal at which Detection Zone was filled with HLEpiC: then removal
Experimental: After the operation in Example 4, the test substance, the positive control, or the comparative control was removed, and after brief washing with the medium, the medium was added at 100 μL/well, and the cells were cultured in a carbon dioxide incubator (37° C., 5% CO2).

C[C@H]1CNCCCN1S(=O)(=O)c1cccc2cncc(F)c12 [Ripasudil, 4-fluoro-5-{[(2S)-2-methyl-1,4-diazepan-1-yl]sulfonyl}isoquinoline]
actin stress fibers (observation) ([1]; 10 μM): slightly disappear
actin stress fibers (observation) ([1]; 100 μM): significantly disappear
actin stress fibers (observation) ([1]; 1 mM): significantly disappear
Uptake rate of BrdU (% of control) (Normal human fibroblasts; Ripasudil 0.1 μM): 80.0 % of control
Uptake rate of BrdU (% of control) (Normal human fibroblasts; Ripasudil 1.0 μM): 59.3 % of control
Uptake rate of BrdU (% of control) (Normal human fibroblasts; Ripasudil 10.0 μM): 10.9 % of control
time after removal at which Detection Zone was filled with HLEpiC (HLEpiC; 100 μM treatment): about 24 hours
state of Detection Zone about 48 hours after removal (HLEpiC; 1 mM treatment, about 48 hours after removal): not filled with HLEpiC
time after removal at which Detection Zone was filled with HLEpiC (HLEpiC; 1 mM treatment): 116 h
